Assay results taken from paper PMC9386376, “Discovery of spirooxindole-derived small-molecule compounds as novel HDAC/MDM2 dual inhibitors and investigation of their anticancer activity” (Frontiers in Oncology, 2022).

Key:
GST-tagged MDM2 = biological target: T1, GST-tagged MDM2 (Homo sapiens, UniProt Q00987); assay: HTRF enzyme inhibition assay, MDM2; format: biochemical; settings: compound at 1 μM
T1 construct: purchased Cisbio Co. Ltd
Description: The enzymatic assay of test compounds is using the HTRF-based method provided by Cisbio Co. Ltd. In brief, the target compounds to be tested were prepared into samples with a concentration of 1 μM, which was added to GST-tagged MDM2 and HDAC1 proteins, respectively, then biotinylated substrate p53 peptide and HTRF detection reagents were added. The data obtained were processed by the ratio method, and the inhibition rates of MDM2 and HDAC1 were calculated. The detailed experimental procedures are according to the manufacturer’s protocols.

HDAC1 = HDAC1 (Homo sapiens, UniProt Q13547); assay: HTRF enzyme inhibition assay, HDAC1; settings: read-out: % enzyme inhibition HDAC
Sequence of HDAC1 (Q13547 whole entry): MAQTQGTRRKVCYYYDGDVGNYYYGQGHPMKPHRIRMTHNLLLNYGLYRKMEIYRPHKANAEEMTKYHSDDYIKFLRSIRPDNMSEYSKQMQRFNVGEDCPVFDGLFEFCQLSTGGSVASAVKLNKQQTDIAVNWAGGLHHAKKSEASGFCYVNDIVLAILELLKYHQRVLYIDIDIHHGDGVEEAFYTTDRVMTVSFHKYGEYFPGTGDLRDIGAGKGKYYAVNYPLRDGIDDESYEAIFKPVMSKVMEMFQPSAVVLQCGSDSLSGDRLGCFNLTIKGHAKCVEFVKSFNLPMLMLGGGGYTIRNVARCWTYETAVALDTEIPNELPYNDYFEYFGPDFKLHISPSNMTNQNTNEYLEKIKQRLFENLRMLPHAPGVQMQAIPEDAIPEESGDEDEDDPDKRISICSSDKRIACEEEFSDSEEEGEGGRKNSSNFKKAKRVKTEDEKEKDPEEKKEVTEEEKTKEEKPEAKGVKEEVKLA

T1 sequence (Q00987 whole entry): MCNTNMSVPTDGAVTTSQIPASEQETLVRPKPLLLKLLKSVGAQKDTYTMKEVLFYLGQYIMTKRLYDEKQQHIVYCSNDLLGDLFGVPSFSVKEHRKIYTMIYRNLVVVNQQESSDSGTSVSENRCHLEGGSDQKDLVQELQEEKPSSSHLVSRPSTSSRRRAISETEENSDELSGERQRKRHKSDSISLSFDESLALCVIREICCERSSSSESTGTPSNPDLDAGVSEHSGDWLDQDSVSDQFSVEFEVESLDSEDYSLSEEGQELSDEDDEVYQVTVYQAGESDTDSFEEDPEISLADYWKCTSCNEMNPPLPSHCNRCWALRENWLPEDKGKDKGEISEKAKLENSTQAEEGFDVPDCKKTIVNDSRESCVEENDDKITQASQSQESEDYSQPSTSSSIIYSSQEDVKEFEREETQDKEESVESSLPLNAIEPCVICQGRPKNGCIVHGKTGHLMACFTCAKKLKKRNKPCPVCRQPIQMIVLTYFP

Question: With O=C(CCCCCCC(=O)Nc1ccc([C@@H]2[C@H]3CSCN3[C@]3(C(=O)Nc4cc(Br)ccc43)[C@H]2C(=O)c2ccccc2)cc1)NO [7g, N^1-(4-((3R,6'S,7'R,7a'S)-6'-benzoyl-6-bromo-2-oxo-1',6',7',7a'-tetrahydro-3'H-spiro[indoline-3,5'-pyrrolo[1,2-c]thiazol]-7'-yl)phenyl)-N^8-hydroxyoctanediamide] as the compound, how does the inhibition at 1 µM (GST-tagged MDM2) read?
Answer: The inhibition at 1 µM was 59%.

Question: And the melting point?
Answer: The melting point was 149.8 to 152.1 °C.

Question: And the inhibition at 1 µM (HDAC1)?
Answer: The inhibition at 1 µM was 68%.

Question: With Cc1cccc2c1NC(=O)[C@@]21[C@@H](C(=O)c2ccccc2)[C@H](c2ccc(NC(=O)CCCCCCC(=O)NO)cc2)[C@H]2CSCN21 [7h, N^1-(4-((3R,6'S,7'R,7a'S)-6'-benzoyl-7-methyl-2-oxo-1',6',7',7a'-tetrahydro-3'H-spiro[indoline-3,5'-pyrrolo[1,2-c]thiazol]-7'-yl)phenyl)-N^8-hydroxyoctanediamide] as the compound, how does the inhibition at 1 µM (GST-tagged MDM2) read?
Answer: Its inhibition at 1 µM is 23%.

Question: And the melting point?
Answer: The melting point was 142.7 to 143.9 °C.

Question: And the inhibition at 1 µM (HDAC1)?
Answer: The inhibition at 1 µM was 71%.

Question: With O=C(CCCCCCC(=O)Nc1ccc([C@@H]2[C@H]3CSCN3[C@]3(C(=O)Nc4c(Br)cccc43)[C@H]2C(=O)c2ccccc2)cc1)NO [7i, N^1-(4-((3R,6'S,7'R,7a'S)-6'-benzoyl-7-bromo-2-oxo-1',6',7',7a'-tetrahydro-3'H-spiro[indoline-3,5'-pyrrolo[1,2-c]thiazol]-7'-yl)phenyl)-N^8-hydroxyoctanediamide] as the compound, how does the inhibition at 1 µM (GST-tagged MDM2) read?
Answer: Its inhibition at 1 µM is 30%.

Question: And the melting point?
Answer: The melting point was 137.5 to 138.9 °C.

Question: And the inhibition at 1 µM (HDAC1)?
Answer: The inhibition at 1 µM was 67%.

Question: Which results are given for COc1ccc2c(c1)[C@@]1(C(=O)N2)[C@@H](C(=O)c2ccccc2)[C@H](c2ccc(NC(=O)CCCCCCC(=O)NO)cc2)[C@H]2CSCN21 [7j, N^1-(4-((3R,6'S,7'R,7a'S)-6'-benzoyl-5-methoxy-2-oxo-1',6',7',7a'-tetrahydro-3'H-spiro[indoline-3,5'-pyrrolo[1,2-c]thiazol]-7'-yl)phenyl)-N^8-hydroxyoctanediamide]?
Answer: inhibition at 1 µM (GST-tagged MDM2): 50%; melting point: 134.9 to 136.2 °C; inhibition at 1 µM (HDAC1): 70%

Question: Which inhibition at 1 µM (GST-tagged MDM2) does the source give for COc1cccc(C(=O)[C@H]2[C@H](c3ccc(NC(=O)CCCCCCC(=O)NO)cc3)[C@H]3CSCN3[C@]23C(=O)Nc2ccccc23)c1 [7l, N^1-hydroxy-N^8-(4-((3R,6'S,7'R,7a'S)-6'-(3-methoxybenzoyl)-2-oxo-1',6',7',7a'-tetrahydro-3'H-spiro[indoline-3,5'-pyrrolo[1,2-c]thiazol]-7'-yl)phenyl)octanediamide] here?
Answer: Its inhibition at 1 µM is 44%.

Question: And the melting point?
Answer: The melting point was 121.6 to 122.8 °C.

Question: What about the inhibition at 1 µM (HDAC1) of the same compound?
Answer: Its inhibition at 1 µM is 62%.

Question: With CN(C)c1ccc(C(=O)[C@H]2[C@H](c3ccc(NC(=O)CCCCCCC(=O)NO)cc3)[C@H]3CSCN3[C@]23C(=O)Nc2ccccc23)cc1 [7m, N^1-(4-((3R,6'S,7'R,7a'S)-6'-(4-(dimethylamino)benzoyl)-2-oxo-1',6',7',7a'-tetrahydro-3'H-spiro[indoline-3,5'-pyrrolo[1,2-c]thiazol]-7'-yl)phenyl)-N^8-hydroxyoctanediamide] as the compound, how does the inhibition at 1 µM (GST-tagged MDM2) read?
Answer: Its inhibition at 1 µM is 40%.

Question: What about the melting point of the same compound?
Answer: Its melting point is 148.7 to 150 °C.

Question: And the inhibition at 1 µM (HDAC1)?
Answer: The inhibition at 1 µM was 68%.

Question: With O=C(CCCCCCC(=O)Nc1ccc([C@@H]2[C@H]3CSCN3[C@]3(C(=O)Nc4ccccc43)[C@H]2C(=O)c2cccc(Br)c2)cc1)NO [7n, N^1-(4-((3R,6'S,7'R,7a'S)-6'-(3-bromobenzoyl)-2-oxo-1',6',7',7a'-tetrahydro-3'H-spiro[indoline-3,5'-pyrrolo[1,2-c]thiazol]-7'-yl)phenyl)-N^8-hydroxyoctanediamide] as the compound, how does the inhibition at 1 µM (GST-tagged MDM2) read?
Answer: Its inhibition at 1 µM is 43%.

Question: What about the melting point of the same compound?
Answer: Its melting point is 120.2 to 121.5 °C.

Question: And the inhibition at 1 µM (HDAC1)?
Answer: The inhibition at 1 µM was 69%.

Question: With O=C(CCC(=O)Nc1ccc([C@@H]2[C@H]3CSCN3[C@]3(C(=O)Nc4ccccc43)[C@H]2C(=O)c2ccccc2)cc1)NO [7o, N^1-(4-((3R,6'S,7'R,7a'S)-6'-benzoyl-2-oxo-1',6',7',7a'-tetrahydro-3'H-spiro[indoline-3,5'-pyrrolo[1,2-c]thiazol]-7'-yl)phenyl)-N^4-hydroxysuccinamide] as the compound, how does the inhibition at 1 µM (GST-tagged MDM2) read?
Answer: Its inhibition at 1 µM is 43%.

Question: And the melting point?
Answer: The melting point was 145.1 to 146.3 °C.

Question: And the inhibition at 1 µM (HDAC1)?
Answer: Its inhibition at 1 µM is 54%.

Question: With O=C(CCCCC(=O)Nc1ccc([C@@H]2[C@H]3CSCN3[C@]3(C(=O)Nc4ccccc43)[C@H]2C(=O)c2ccccc2)cc1)NO [7p, N^1-(4-((3R,6'S,7'R,7a'S)-6'-benzoyl-2-oxo-1',6',7',7a'-tetrahydro-3'H-spiro[indoline-3,5'-pyrrolo[1,2-c]thiazol]-7'-yl)phenyl)-N^6-hydroxyadipamide] as the compound, how does the inhibition at 1 µM (GST-tagged MDM2) read?
Answer: The inhibition at 1 µM was 44%.

Question: What about the melting point of the same compound?
Answer: The melting point was 140.3 to 141.7 °C.

Question: What about the inhibition at 1 µM (HDAC1) of the same compound?
Answer: The inhibition at 1 µM was 60%.

Question: What does the source list for O=C(CCCCCCCCC(=O)Nc1ccc([C@@H]2[C@H]3CSCN3[C@]3(C(=O)Nc4ccccc43)[C@H]2C(=O)c2ccccc2)cc1)NO [7q, N^1-(4-((3R,6'S,7'R,7a'S)-6'-benzoyl-2-oxo-1',6',7',7a'-tetrahydro-3'H-spiro[indoline-3,5'-pyrrolo[1,2-c]thiazol]-7'-yl)phenyl)-N^10-hydroxydecanediamide]?
Answer: inhibition at 1 µM (GST-tagged MDM2): 42%; melting point: 131.9 to 132.1 °C; inhibition at 1 µM (HDAC1): 71%

Question: With O=C(CCCCC(=O)Nc1ccc([C@@H]2[C@H]3CSCN3[C@]3(C(=O)Nc4cc(Cl)ccc43)[C@H]2C(=O)c2ccccc2)cc1)NO [7r, N^1-(4-((3R,6'S,7'R,7a'S)-6'-benzoyl-6-chloro-2-oxo-1',6',7',7a'-tetrahydro-3'H-spiro[indoline-3,5'-pyrrolo[1,2-c]thiazol]-7'-yl)phenyl)-N^6-hydroxyadipamide] as the compound, how does the inhibition at 1 µM (GST-tagged MDM2) read?
Answer: The inhibition at 1 µM was 61%.

Question: What about the melting point of the same compound?
Answer: The melting point was 160.6 to 161.9 °C.

Question: What about the inhibition at 1 µM (HDAC1) of the same compound?
Answer: The inhibition at 1 µM was 55%.

Question: With O=C(CCCCCCCCC(=O)Nc1ccc([C@@H]2[C@H]3CSCN3[C@]3(C(=O)Nc4cc(Cl)ccc43)[C@H]2C(=O)c2ccccc2)cc1)NO [7s, N^1-(4-((3R,6'S,7'R,7a'S)-6'-benzoyl-6-chloro-2-oxo-1',6',7',7a'-tetrahydro-3'H-spiro[indoline-3,5'-pyrrolo[1,2-c]thiazol]-7'-yl)phenyl)-N^10-hydroxydecanediamide] as the compound, how does the inhibition at 1 µM (GST-tagged MDM2) read?
Answer: Its inhibition at 1 µM is 59%.

Question: What about the melting point of the same compound?
Answer: The melting point was 137.7 to 139 °C.

Question: And the inhibition at 1 µM (HDAC1)?
Answer: The inhibition at 1 µM was 68%.

Question: What does the source list for O=C(CCCCCCC(=O)Nc1ccc([C@@H]2[C@H]3CCCN3[C@]3(C(=O)Nc4cc(Cl)ccc43)[C@H]2C(=O)c2ccccc2)cc1)NO [7t, N^1-(4-((1'R,2'S,3R,7a'R)-2'-benzoyl-6-chloro-2-oxo-1',2',5',6',7',7a'-hexahydrospiro[indoline-3,3'-pyrrolizin]-1'-yl)phenyl)-N^8-hydroxyoctanediamide]?
Answer: inhibition at 1 µM (GST-tagged MDM2): 61%; melting point: 143.4 to 144.5 °C; inhibition at 1 µM (HDAC1): 61%

Question: With O=C(CCCCC(=O)Nc1ccc(C(=O)Nc2ccc([C@@H]3[C@H]4CSCN4[C@]4(C(=O)Nc5cc(Cl)ccc54)[C@H]3C(=O)c3ccccc3)cc2)cc1)NO [7v, N^1-(4-((4-((3R,6'S,7'R,7a'S)-6'-benzoyl-6-chloro-2-oxo-1',6',7',7a'-tetrahydro-3'H-spiro[indoline-3,5'-pyrrolo[1,2-c]thiazol]-7'-yl)phenyl)carbamoyl)phenyl)-N^6-hydroxyadipamide] as the compound, how does the inhibition at 1 µM (GST-tagged MDM2) read?
Answer: The inhibition at 1 µM was 58%.

Question: What about the melting point of the same compound?
Answer: The melting point was 175.5 to 176.6 °C.

Question: What about the inhibition at 1 µM (HDAC1) of the same compound?
Answer: The inhibition at 1 µM was 53%.

Question: What does the source list for Nc1ccccc1NC(=O)CCC(=O)Nc1ccc([C@@H]2[C@H]3CSCN3[C@]3(C(=O)Nc4ccccc43)[C@H]2C(=O)c2ccccc2)cc1 [9a, N^1-(2-aminophenyl)-N^4-(4-((3R,6'S,7'R,7a'S)-6'-benzoyl-2-oxo-1',6',7',7a'-tetrahydro-3'H-spiro[indoline-3,5'-pyrrolo[1,2-c]thiazol]-7'-yl)phenyl)succinamide]?
Answer: inhibition at 1 µM (GST-tagged MDM2): 50%; melting point: 149.1 to 150.2 °C; inhibition at 1 µM (HDAC1): 37%
